Experiment [1] in a line: Test 2: blood pressure depression up to 24 hours and duration until 50% recovery, oral. As to conditions: for response vs control in vivo at 25 mg/kg: Rattus norvegicus; for Duration 50% recovery: duration until pressure recovered to 50% from the maximum depression value. Format: in vivo, Male, spontaneously hypertension-developing rats. As to the method: (§1) Male, spontaneously hypertension-developing rats of ages of 10 to 11 weeks (in groups of 3 to 5 animals) were used in the test. For blood pressure determination, systolic pressure was measured without anesthesia by an indirect tail-cuff method using a sphygmomanometer (PE-300, Narco Bio-System).

A short description of experiment [2]: Test 1: blood pressure depression effect, systolic pressure, indirect tail-cuff method, oral. The experiment is classed as in vivo, Male, spontaneously hypertension-developing rats. The following applies: for Systolic blood pressure (mmHg) After 1 hr / Systolic blood pressure (mmHg) After 4 hrs / Systolic blood pressure (mmHg) After 7 hrs: 25 mg/kg oral, average value; for Systolic blood pressure (mmHg) After 1 hr: 1 hr after administration; for Systolic blood pressure (mmHg) After 4 hrs: 4 hrs after administration; for Systolic blood pressure (mmHg) After 7 hrs: 7 hrs after administration. The protocol:
Blood pressure depression effect
as §1
The compound to be tested was orally administered (at a dose of 25 mg/kg in terms of the active compound) as a 10% HCO-60 (polyoxyethylene hardened castor oil) suspension. Blood pressure was determined 1, 4 and 7 hours after the administration.
Further, the blood pressure depression effect of the fumarate of the compound obtained in Example 28 described later was examined in the same manner as described above.

Setting [3] is: 1h after oral administration, percent based on that before administration (100), read-out: Depression value (%) of blood pressure, 1h.
Where [4] appears, read: 2h after oral administration, percent based on that before administration (100), read-out: Depression value (%) of blood pressure, 2h.
Setting [5] is: 4h after oral administration, percent based on that before administration (100), read-out: Depression value (%) of blood pressure, 4h.
Where [6] appears, read: 7h after oral administration, percent based on that before administration (100), read-out: Depression value (%) of blood pressure, 7h.
Setting [7] is: 24h after oral administration, percent based on that before administration (100), read-out: Depression value (%) of blood pressure, 24h.
Setting [8] is: maximum lowering, percent based on that before administration (100), read-out: Depression value (%) of blood pressure, Max.

Structures can show the parent of a compound that is named as a salt. Where two headings read alike, the source gives them in different places.

Turning to `COC(=O)C1=C(C)NC(C)=C(C(=O)OCCN(C)Cc2ccccc2)C1c1ccnc(F)c1` (stereo not drawn) [(16), 2,6-Dimethyl-4-(2-fluoro-4-pyridyl)-1,4-dihydropyridine-3,5-dicarboxylic acid 3-β-(N-benzyl-N-methylamino)ethyl ester 5-methyl ester], the response vs control in vivo at 25 mg/kg in experiment [1] (setting [3]) was determined as 92%; in experiment [1] (setting [4]), 94%; in experiment [1] (setting [5]), 95%; in experiment [1] (setting [6]) it was 98%; in experiment [1] (setting [7]) it was 96%; in experiment [1] (setting [8]), 92%. Moreover, the “Duration 50% recovery” value in experiment [1] came to 5.5 h.

`COC(=O)C1=C(C)NC(C)=C(C(=O)OCCN(C)Cc2ccccc2)C1c1cncc(C(F)(F)F)c1` (stereo not drawn) [(17), 2,6-Dimethyl-4-(5-trifluoromethyl-3-pyridyl)-1,4-dihydropyridine-3,5-dicarboxylic acid 3-β-(N-benzyl-N-methylamino)ethyl ester 5-methyl ester]: the response vs control in vivo at 25 mg/kg stood at 91% in experiment [1] (setting [3]); 92% in experiment [1] (setting [4]); 95% in experiment [1] (setting [5]); 98% in experiment [1] (setting [6]); 105% in experiment [1] (setting [7]); 91% in experiment [1] (setting [8]). Besides, the “Duration 50% recovery” value in experiment [1] was found to be 4.2 h.

Take `COC(=O)C1=C(C)NC(C)=C(C(=O)OCCN(C)Cc2ccccc2)C1c1cncc([N+](=O)[O-])c1` (stereo not drawn) [(18), 2,6-Dimethyl-4-(5-nitro-3-pyridyl)-1,4-dihydropyridine-3,5-dicarboxylic ac id 3-β-(N-benzyl-N-methylamino)ethyl ester 5-methyl ester]: the response vs control in vivo at 25 mg/kg in experiment [1] (setting [3]) was 90%; in experiment [1] (setting [4]), 86%; in experiment [1] (setting [5]) it was 95%; in experiment [1] (setting [6]), 96%; in experiment [1] (setting [7]), 96%; in experiment [1] (setting [8]), 86%. Moreover, the “Duration 50% recovery” value in experiment [1] worked out at 3.7 h.

As for `COC(=O)C1=C(C)NC(C)=C(C(=O)OCCN(C)Cc2ccccc2)C1c1ccnc(C#N)c1` (stereo not drawn) [(19), 2,6-Dimethyl-4-(2-cyano-4-pyridyl)-1,4-dihydropyridine-3,5-dicarboxylic ac id 3-β-(N-benzyl-N-methylamino)ethyl ester 5-methyl ester], the response vs control in vivo at 25 mg/kg in experiment [1] (setting [3]) came to 75%; in experiment [1] (setting [4]), 94%; in experiment [1] (setting [5]) it was 100%; in experiment [1] (setting [6]), 98%; in experiment [1] (setting [7]), 99%; in experiment [1] (setting [8]) it was 75%. The “Duration 50% recovery” value in experiment [1] was 1.7 h.

In the case of `COC(=O)C1=C(C)NC(C)=C(C(=O)OCCN(C)Cc2ccccc2)C1c1cccc(C#N)n1` (stereo not drawn) [Example 1, 2,6-Dimethyl-4-(6-cyano-2-pyridyl)-1,4-dihydropyridine-3,5-dicarboxylicacid 3-β-(N-benzyl-N-methylamino)ethyl ester 5-methyl ester], the response vs control in vivo at 25 mg/kg came to 69% in experiment [1] (setting [3]); 74% in experiment [1] (setting [4]); 84% in experiment [1] (setting [5]); 88% in experiment [1] (setting [6]); 98% in experiment [1] (setting [7]); 69% in experiment [1] (setting [8]). The “Duration 50% recovery” value in experiment [1] is given as 4.4 h. Further, the “Systolic blood pressure (mmHg) After 1 hr” value in experiment [2] is on record as 115 mmHg. In experiment [2], the “Systolic blood pressure (mmHg) After 4 hrs” value is on record as 137 mmHg. The “Systolic blood pressure (mmHg) After 7 hrs” value in experiment [2] was 148 mmHg.

Regarding `COC(=O)C1=C(C)NC(C)=C(C(=O)OCCN(C)Cc2ccccc2)C1c1cccc(Br)n1` (stereo not drawn) [Example 3, 2,6-Dimethyl-4-(6-bromo-2-pyridyl)-1,4-dihydropyridine-3,5-dicarboxylicacid 3-β-(N-benzyl-methylamino)ethyl ester 5-methyl ester], the response vs control in vivo at 25 mg/kg in experiment [1] (setting [3]) was determined as 63%; in experiment [1] (setting [4]), 72%; in experiment [1] (setting [5]) it was 86%; in experiment [1] (setting [6]), 83%; in experiment [1] (setting [7]), 99%; in experiment [1] (setting [8]) it was 63%. Besides, the “Duration 50% recovery” value in experiment [1] came to 3.5 h. In addition, in experiment [2], the “Systolic blood pressure (mmHg) After 1 hr” value stood at 126 mmHg. Also, in experiment [2], the “Systolic blood pressure (mmHg) After 4 hrs” value is recorded as 143 mmHg. Further, the “Systolic blood pressure (mmHg) After 7 hrs” value in experiment [2] was found to be 161 mmHg.

For the compound `COC(=O)C1=C(C)NC(C)=C(C(=O)OCCN(C)Cc2ccccc2)C1c1cc([N+](=O)[O-])ccn1` (stereo not drawn) [Example 5, 2,6-Dimethyl-4-(4-nitro-2-pyridyl)-1,4-dihydropyridine-3,5-dicarboxylic acid 3-β-(N-benzyl-N-methylamino)ethyl ester 5-methyl ester], the response vs control in vivo at 25 mg/kg in experiment [1] (setting [3]) was found to be 67%; in experiment [1] (setting [4]) it was 82%; in experiment [1] (setting [5]), 93%; in experiment [1] (setting [6]), 90%; in experiment [1] (setting [7]) it was 104%; in experiment [1] (setting [8]), 67%. For the same compound, the “Duration 50% recovery” value in experiment [1] is listed as 2.3 h. Further, in experiment [2], the “Systolic blood pressure (mmHg) After 1 hr” value is reported as 156 mmHg. Further, the “Systolic blood pressure (mmHg) After 4 hrs” value in experiment [2] was 135 mmHg. Further, the “Systolic blood pressure (mmHg) After 7 hrs” value in experiment [2] turned out to be 140 mmHg.

As to `COC(=O)C1=C(C)NC(C)=C(C(=O)OCCN(C)Cc2ccccc2)C1c1ccnc(C(F)(F)F)c1` (stereo not drawn) [Example 6, 2,6-Dimethyl-4-(2-trifluoromethyl-4-pyridyl)-1,4-dihydropyridine-3,5-dicarboxylic acid 3-β-(N-benzyl-N-methylamino)ethyl ester 5-methyl ester], in experiment [2], the “Systolic blood pressure (mmHg) After 1 hr” value was 139 mmHg, the “Systolic blood pressure (mmHg) After 4 hrs” value was 145 mmHg and the “Systolic blood pressure (mmHg) After 7 hrs” value is recorded as 145 mmHg.

With `COC(=O)C1=C(C)NC(C)=C(C(=O)OCCN(C)Cc2ccccc2)C1c1cccnc1C(F)(F)F` (centres unmarked) [Example 28 fumarate], in experiment [2] (same manner as Test 1, oral), the “time required for 50% recovery from maximum depression value (%) of blood pressure” value was 16.2 h. Besides, the “maximum depression value (%) of blood pressure from the value (100%) before administration” value in experiment [2] (same manner as Test 1, oral, before administration = 100%) was determined as 67%.

Regarding `COC(=O)C1=C(C)NC(C)=C(C(=O)OCCN(C)Cc2ccccc2)C1c1cccc([N+](=O)[O-])c1` (stereo not drawn) [Nic, 2,6-dimethyl-4-(3-nitrophenyl)-1,4-dihydropyridine-3,5-dicarboxylic acid 3-β-(N-benzyl-N-methylamino)ethyl ester 5-methyl ester, reference compound], the response vs control in vivo at 25 mg/kg was 62% in experiment [1] (setting [3]); 68% in experiment [1] (setting [4]); 76% in experiment [1] (setting [5]); 81% in experiment [1] (setting [6]); 96% in experiment [1] (setting [7]); 62% in experiment [1] (setting [8]). Further, the “Duration 50% recovery” value in experiment [1] is on record as 7.0 h.

On to `COC(=O)C1=C(C)NC(C)=C(C(=O)OC)C1c1ccccc1[N+](=O)[O-]` [Nif, 2,6-dimethyl-4-(2-nitrophenyl)-1,4-dihydropyridine-3,5-dicarboxylic acid dimethyl ester, reference compound], for which the response vs control in vivo at 25 mg/kg came out at 72% in experiment [1] (po, 1 h, read-out: Depression value (%) of blood pressure, 1h); 73% in experiment [1] (po, 2 h, read-out: Depression value (%) of blood pressure, 2h); 77% in experiment [1] (po, 4 h, read-out: Depression value (%) of blood pressure, 4h); 70% in experiment [1] (po, 7 h, read-out: Depression value (%) of blood pressure, 7h); 90% in experiment [1] (po, 24 h, read-out: Depression value (%) of blood pressure, 24h); 70% in experiment [1] (read-out: Depression value (%) of blood pressure, Max). In addition, the “Duration 50% recovery” value in experiment [1] was determined as 19.4 h.

(Values after patent US4849429A, “Certain 1,4-dihydro-2,6-dilower-alkyl-4-(mono-substituted pyridyl) useful for treating coronary artery or cerebral artery disease” (The Green Cross Corporation, priority 1985, dated 1989).)
